Measurements published in US5045558A, “N-substituted imidazoles and their use in pharmaceutical agents” (Schering Aktiengesellschaft, priority 1988, dated 1991).

Tests used:
11beta-hydroxylase = target: T1, 11beta-hydroxylase (Bos taurus, UniProt P15150); experiment: Test B: Determination of 11-beta Hydroxylase Activity (mitochondria from bovine suprarenals); format: biochemical; settings: for IC50: Test B, bovine suprarenal mitochondria, substrate concentration corresponds to apparent Km; for selectivity of aromatase inhibition (in words): aromatase vs other enzyme systems (11beta-hydroxylase), in comparison with compound 1 / compounds known so far
T1 construct: mitochondria, obtained from bovine suprarenals; from tissue; host or cells: bovine suprarenals (adrenal glands), mitochondria
T1 sequence (P15150 25-503): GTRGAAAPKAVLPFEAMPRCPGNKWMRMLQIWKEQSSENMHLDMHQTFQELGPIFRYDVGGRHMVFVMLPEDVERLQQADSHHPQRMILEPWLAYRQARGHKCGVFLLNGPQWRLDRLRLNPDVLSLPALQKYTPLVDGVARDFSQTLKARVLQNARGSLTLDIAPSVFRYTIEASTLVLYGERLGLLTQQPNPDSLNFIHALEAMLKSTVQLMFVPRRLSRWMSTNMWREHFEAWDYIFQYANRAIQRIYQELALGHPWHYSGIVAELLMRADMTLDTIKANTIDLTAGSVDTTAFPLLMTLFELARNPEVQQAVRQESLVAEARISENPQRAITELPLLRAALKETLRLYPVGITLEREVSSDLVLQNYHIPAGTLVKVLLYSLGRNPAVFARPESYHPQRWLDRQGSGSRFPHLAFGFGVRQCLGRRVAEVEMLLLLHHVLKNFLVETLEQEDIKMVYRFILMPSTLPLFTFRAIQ
Method: Determination of 11-beta Hydroxylase Activity
The 11beta-hydroxylase activity is measured on mitochondria, obtained from bovine suprarenals. The reaction of [1,2-^3 H]-17alpha-hydroxy-11-deoxycorticosterone in cortisol is determined by thin-film chromatography of the resulting reaction products according to a method of Mitani et al (J. Biol. Chem 250, 8010-15 (1975)). The concentration of the examined compound is determined, in which the reaction is inhibited by 50%, and the substrate concentration corresponds to the apparent Km value.

aromatase = target: T2, aromatase (Homo sapiens, UniProt P11511); experiment: Test A: Determination of Aromatase Activity (release of tritium-labeled water, human placenta microsomes); format: biochemical; settings: for Ki: Test A, human placenta microsomes, Dixon method; for inhibition of aromatase (in words): in comparison with compound 1 / compounds known so far
T2 construct: microsomes obtained from human placenta; from tissue; host or cells: human placenta, microsomes
T2 sequence (P11511 1-503): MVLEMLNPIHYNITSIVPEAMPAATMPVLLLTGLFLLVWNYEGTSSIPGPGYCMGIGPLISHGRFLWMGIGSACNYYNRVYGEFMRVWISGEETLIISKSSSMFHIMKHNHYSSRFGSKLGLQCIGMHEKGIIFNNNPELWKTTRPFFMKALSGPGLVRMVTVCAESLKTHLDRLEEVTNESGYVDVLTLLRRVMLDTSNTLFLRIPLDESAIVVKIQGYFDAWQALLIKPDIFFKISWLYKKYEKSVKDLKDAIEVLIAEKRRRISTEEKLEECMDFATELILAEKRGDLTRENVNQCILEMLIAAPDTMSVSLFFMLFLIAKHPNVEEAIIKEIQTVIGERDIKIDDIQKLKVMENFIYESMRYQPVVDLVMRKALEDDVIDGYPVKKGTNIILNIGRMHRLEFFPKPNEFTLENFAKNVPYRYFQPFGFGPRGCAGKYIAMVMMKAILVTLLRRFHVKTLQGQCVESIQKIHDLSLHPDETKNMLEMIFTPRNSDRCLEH
Method: Determination of Aromatase Activity
The capabilities of compounds to inhibit the enzyme system of aromatase is tested on microsomes obtained from human placenta. The release of tritium-labeled water (^3 H2 O), which is released as reaction product in the aromatizing of (1beta-^3 H) androstrenedione to estrogen, is measured according to the methods of Thompson and Siiteri (J. Biol. Chem. Z49, 5364-72 (1974)). The corresponding inhibition values (K1, aromatase) are determined according to the method of Dixon (Biochem. J. 94, 760 (1965) by graphic determination of the application of 1/v against the inhibition concentration.

Compound	IC50 (11beta-hydroxylase) [µM]	Ki (aromatase) [µM]	selectivity of aromatase inhibition (in words) (11beta-hydroxylase)	inhibition of aromatase (in words) (aromatase)
CCCC(c1ccc(C#N)cc1)n1ccnc1 (stereo not shown) [Compound 1, 4-[1-(1-imidazolyl)-butyl]-benzonitrile, reference compound]	0.094	0.0011		
CCCCCC(=O)c1ccc(C(CCC)n2ccnc2)cc1 (stereo not shown) [Compound 2, [4-[1-(1-Imidazolyl)-butyl]-phenyl]-pentylketone]	1.5	0.00042	more selective effectiveness	stronger inhibition actions of aromatase than compound 1
CCCCOC(=O)c1ccc(C(CCC)n2ccnc2)cc1 (stereo not shown) [Compound 3, 4-[1-(1-imidazolyl)-butyl]-benzoic acid butyl ester]	0.75	0.00087	more selective effectiveness	stronger inhibition actions of aromatase than compound 1
